Results on 29 compounds are retold here after ChEMBL document CHEMBL3046633, “Synthesis and antimycobacterial activities of some new N-acylhydrazone and thiosemicarbazide derivatives of 6-methyl-4,5-dihydropyridazin-3(2H)-one” (2012).

In the assay the test system is Mycobacterium tuberculosis. Briefly: Antimycobacterial activity against Mycobacterium tuberculosis by agar dilution method. The format is functional. A general note: Agar dilution tests growth on a series of plates holding different concentrations.

In brackets after ≈: the same amount, converted by molar mass.

Broadly, the MIC is the lowest concentration found to suppress growth.

Compound `CC1=NN(CC(=O)N/N=C/c2ccc(Cl)cc2Cl)C(=O)CC1` displayed an MIC of 0.78 µM (≈ 0.266 µg/mL).

Compound `CC1=NN(CC(=O)N/N=C/c2ccc(C(F)(F)F)cc2)C(=O)CC1` showed an MIC of 1.56 µM (≈ 0.531 µg/mL).

In the case of `CC1=NN(CC(=O)N/N=C/c2ccc(N(C)C)cc2)C(=O)CC1`, inhibition of growth (MIC) required 12.5 µM (≈ 3.94 µg/mL).

Take `CC1=NN(CC(=O)N/N=C/c2ccc(F)cc2)C(=O)CC1`: the MIC was 1.56 µM (≈ 0.453 µg/mL).

For `CC1=NN(CC(=O)N/N=C/c2ccco2)C(=O)CC1`, the MIC is above 25 µM.

Take `CC1=NN(CC(=O)N/N=C/c2cccs2)C(=O)CC1`: the MIC came out at 25 µM (≈ 6.96 µg/mL).

Turning to `CCOc1ccc(/C=N/NC(=O)CN2N=C(C)CCC2=O)cc1`, the MIC was above 25 µM.

`CC1=NN(CC(=O)N/N=C(\C)c2ccccc2)C(=O)CC1` yielded an MIC of 25 µM (≈ 7.16 µg/mL).

The compound `CC1=NN(CC(=O)N/N=C(\C)c2ccc(Cl)cc2)C(=O)CC1` returned an MIC of 12.5 µM (≈ 4.01 µg/mL).

The compound `CC1=NN(CC(=O)N/N=C(\C)c2ccc(Br)cc2)C(=O)CC1` returned an MIC of 12.5 µM (≈ 4.57 µg/mL).

As for `CC1=NN(CC(=O)N/N=C(\C)c2ccc(C)cc2)C(=O)CC1`, the MIC was 25 µM (≈ 7.51 µg/mL).

In the case of `COc1ccc(/C(C)=N/NC(=O)CN2N=C(C)CCC2=O)cc1`, it took 25 µM (≈ 7.91 µg/mL) to inhibit growth (MIC).

As for `CC1=NN(CC(=O)N/N=C(\C)c2ccc([N+](=O)[O-])cc2)C(=O)CC1`, 12.5 µM (≈ 4.14 µg/mL) was the least that counted as inhibitory (MIC).

`CC1=NN(CC(=O)N/N=C(\C)c2ccc(Cl)cc2Cl)C(=O)CC1`: inhibition of growth (MIC) required 12.5 µM (≈ 4.44 µg/mL).

For the compound `CC1=NN(CC(=O)N/N=C(\C)c2ccc(-c3ccccc3)cc2)C(=O)CC1`, 25 µM (≈ 9.06 µg/mL) was the least that counted as inhibitory (MIC).

Turning to `CNC(=S)NNC(=O)CN1N=C(C)CCC1=O`, the MIC is above 25 µM.

`CCNC(=S)NNC(=O)CN1N=C(C)CCC1=O` yielded an MIC above 25 µM.

In turn, `CC1=NN(CC(=O)NNC(=S)Nc2ccccc2)C(=O)CC1` displayed an MIC above 25 µM.

On to `CC1=NN(CC(=O)NN)C(=O)CC1`, for which it took 25 µM (≈ 4.6 µg/mL) to inhibit growth (MIC).

In turn, `CC1=NN(CC(=O)N/N=C/c2ccccc2)C(=O)CC1` showed an MIC of 12.5 µM (≈ 3.4 µg/mL).

Regarding `CC1=NN(CC(=O)N/N=C/c2ccc(Cl)cc2)C(=O)CC1`, the MIC is 3.13 µM (≈ 0.96 µg/mL).

`CC1=NN(CC(=O)N/N=C/c2ccc(Br)cc2)C(=O)CC1` came in with a minimum inhibitory concentration (MIC) of 1.56 µM (≈ 0.548 µg/mL).

With `CC1=NN(CC(=O)N/N=C/c2ccc(C)cc2)C(=O)CC1`, the MIC is 12.5 µM (≈ 3.58 µg/mL).

With `COc1ccc(/C=N/NC(=O)CN2N=C(C)CCC2=O)cc1`, it took 25 µM (≈ 7.56 µg/mL) to inhibit growth (MIC).

Turning to `CC1=NN(CC(=O)N/N=C/c2ccc([N+](=O)[O-])cc2)C(=O)CC1`, the MIC amounted to 6.25 µM (≈ 1.98 µg/mL).

For `O=C(O)c1cn(C2CC2)c2cc(N3CCNCC3)c(F)cc2c1=O` [CIPROFLOXACIN], the MIC was found to be 1.56 µM (≈ 0.517 µg/mL).

The compound `CC[C@@H](CO)NCCN[C@@H](CC)CO` [ETHAMBUTOL] displayed an MIC of 1.56 µM (≈ 0.319 µg/mL).

Consider `NNC(=O)c1ccncc1` [ISONIAZID], for which the lowest concentration to inhibit growth (MIC) was 0.05 µM (≈ 0.00686 µg/mL).

`CO[C@H]1/C=C/O[C@@]2(C)Oc3c(C)c(O)c4c(O)c(c(/C=N/N5CCN(C)CC5)c(O)c4c3C2=O)NC(=O)/C(C)=C\C=C\[C@H](C)[C@H](O)[C@@H](C)[C@@H](O)[C@@H](C)[C@H](OC(C)=O)[C@@H]1C` [RIFAMPIN] showed an MIC of 0.1 µM (≈ 0.0823 µg/mL).
